In article PMC10064984, “Anti-cyclooxygenase, anti-glycation, and anti-skin aging effect of Dendrobium officinale flowers’ aqueous extract and its phytochemical validation in aging” (Frontiers in Immunology, 2023):
Several values for one entry are separate records, joined by “and”; a condition that tells them apart may be missing. Identical values can stand only once. Like-named read-outs stand apart in the source and are kept apart here.

Experiments:
[1] = system: type III collagen in HDFs; assay: Collagen type III immunofluorescence staining in HDFs; type: cell-based, human; settings: for COL III staining: VC positive control, NT = 100%, replicates and AVE, listed as VC
Experimental: (§1) HDFs were cultured in DMEM with 10% (v/v) FBS and 1% PS at 37°C in a humidified 5% CO2 incubator. Cells were subcultured using pancreatin solution after reaching confluence. All experiments were performed between the third and eighth passages.
(§2) The synthesis of collagen types I and III was detected using IF ([26]) and ELISA ([27]). HDFs were digested and seeded in a 24-well culture plate on slides at a density of 50,000 cells/well in a complete medium. After reaching 80% confluency, cells were starved with the medium in the absence of serum for 16 h. Cells were then treated with positive controls or active samples (prepared in medium without serum) for an additional 48 h. For analysis and visualisation of types I and III collagens, the supernatants and remaining cell slides were both collected and analysed using ELISA kits and the IF staining method, respectively.
(§3) Collected supernatants were centrifuged at 10,000 rpm for 10 min and used for types I and III collagen ELISA, according to the manufacturer’s protocol. The remaining cell slides were washed once with PBS and fixed in polyformaldehyde overnight at 4°C. Subsequently, the slides were treated with 0.5% Triton-X100 for 5 min. After washing, cells were blocked with 1% BSA at room temperature for 1 h. Cells were then incubated with types I and type III collagen primary antibodies (1:100) for 2 h at room temperature. […] Finally, the nuclei were counter-stained with DAPI, and relevant fluorescent images were captured using a microscope. ImageJ software was used to quantify collagen expression from different images randomly selected in each group.

type I collagen in HDFs = assay: Collagen type I immunofluorescence staining in HDFs; type: cell-based, human; settings: for COL I staining: VC positive control, NT = 100%, replicates and AVE, listed as VC
Experimental: as §1, §2, §3

[2] = system: secreted type III collagen of HDFs; assay: Extracellular collagen type III ELISA on HDFs; type: cell-based, human; settings: VC positive control, replicates and AVE, listed as VC
Experimental: as §1, §2
Collected supernatants were centrifuged at 10,000 rpm for 10 min and used for types I and III collagen ELISA, according to the manufacturer’s protocol. The remaining cell slides were washed once with PBS and fixed in polyformaldehyde overnight at 4°C. Subsequently, the slides were treated with 0.5% Triton-X100 for 5 min. After washing, cells were blocked with 1% BSA at room temperature for 1 h. […] ImageJ software was used to quantify collagen expression from different images randomly selected in each group.

[3] = system: secreted type I collagen of HDFs; assay: Extracellular collagen type I ELISA on HDFs; type: cell-based, human; settings: for COL I (ELISA): VC positive control, replicates and AVE, listed as VC
Experimental: as §1, §2, §3

[4] = Fluorescent AGEs formation in a BSA-fructose/glucose system; type: biochemical; settings: for IC50: read-out: BSA-glycation IC50
Method in brief: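 BSA glycated in vitro with D-glucose and D-fructose while test samples, dissolved in DMSO:water (1:4), were present. Percent inhibition of fluorescent AGE formation calculated from fluorescence corrected for sample-only and BSA-free blanks; triplicate.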

[5] = system: CML expression in MGO-induced HDFs; assay: Glycation cell assay: CML expression in MGO-induced HDFs (IF); type: cell-based, human; settings: positive compound
Experimental: Based on previously reported methods ([25]), human primary dermal fibroblasts (HDFs) were induced by MGO to establish a cell model of high CML expression.
HDFs were cultured in high-glucose DMEM supplemented with 10% FBS containing 100 µg/ml of PS at 37°C in a humidified 5% CO2 incubator. Cell viability was assessed using the CCK-8 kit. HDFs were cultured in 12-well plates to approximately 70% confluence and then treated with 0.5 mmol/L of MGO for 48 h to induce glycation and the formation of CML. Subsequently, different concentrations of samples were added and co-cultured with MGO for an additional 48 h. Cells were then washed once with PBS and fixed in polyformaldehyde overnight at 4°C. Triton-X-100 solution (0.1%) was assigned to fixed cells for 5 min at room temperature to improve cell membrane permeability. After washing twice with PBS, cells were blocked in 1% BSA for 1 h, followed by incubation with the primary CML antibody (1:50) overnight at 4°C. […] Counterstaining was performed by adopting anti-fluorescence quenching and sealing liquid containing DAPI, followed by visualisation and fluorescence image capture using a microscope (Leica, Germany). ImageJ software was used to quantify CML expression from different images randomly selected in each group.

| SMILES | collagen type III expression (IF) ([1]; VC 200 μg/ml, positive control) | COL III staining [1] | COL III staining ([1]; mean) | collagen type I expression (IF) (type I collagen in HDFs; VC 200 μg/ml, positive control) | COL I staining (type I collagen in HDFs) | COL I staining (type I collagen in HDFs; mean) | COL III (ELISA) [2] | COL III (ELISA) ([2]; mean) | COL I (ELISA) [3] | COL I (ELISA) ([3]; mean) | increase of secreted collagen type I levels ([3]; VC, 48 h, culture medium) | fluorescent AGEs IC50 [4] | inhibition of fluorescent AGEs formation (BSA-抗糖化), single replicate ([4]; 15.625 ug/ml) | IC50 ([4]; lower part of sheet (compound series)) | IC50 ([4]; mean ± SD, n = 3) | BSA-glycation IC50 ([4]; upper part of sheet (extract series)) | IC50 ([4]; upper part of sheet (extract series), positive control also given in μM) | inhibition of glycation (CML) [5] |
| --- | --- | --- | --- | --- | --- | --- | --- | --- | --- | --- | --- | --- | --- | --- | --- | --- | --- | --- |
| O=C1O[C@H]([C@@H](O)CO)C(O)=C1O [vitamin C] | 125.90 % of control | 118.22% and 137.59% and 116.52% and 131.28% | 125.90% | 190.20 % of control | 173.88% and 170.79% and 188.58% and 168.29% and 249.47% | 190.20% | 2.70 ng/mL and 2.97 ng/mL and 3.15 ng/mL | 2.94 ng/mL | 646.77 pg/mL and 611.41 pg/mL and 656.93 pg/mL | 638.37 pg/mL | 21.94% | – | – | – | – | – | – | – |
| Cl.N=C(N)NN [AG, Aminoguanidine hydrochloride, reference compound] | – | – | – | – | – | – | – | – | – | – | – | 177.3 ± 11.6 µg/mL | -1.16% and 3.22% | 1620 ± 111 µM | 1600 µM | 178.47 ± 12.27 µg/mL | 1620 ± 111 µM | 88.11% |
